The assay concerns the target T1, avidin (unmodified, native) (Gallus gallus, UniProt P02701).
T1 construct: gene AVD; natural secreted glycoprotein from egg white (mature chain, signal peptide removed), commercial lyophilised (Merck), untagged; homotetramer, one ligand site per monomer
Description: UV-Vis titration at […] nm, non-linear regression (Hill-Langmuir). It is filed as binding. Particulars: read-out: Unmodified avidin / K d (×10^-5 mol dm^-3).

T1 sequence (P02701 25-152): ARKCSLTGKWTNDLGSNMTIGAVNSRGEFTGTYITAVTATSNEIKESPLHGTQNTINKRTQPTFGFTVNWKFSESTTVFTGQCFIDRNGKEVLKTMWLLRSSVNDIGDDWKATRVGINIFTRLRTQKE

Consider `O=C(O)c1ccccc1N=Nc1ccc(O)cc1` [HABA], for which the Kd is 11 µM.

Source of the values: publication PMC8178808, “Exploring conformational preferences of proteins: ionic liquid effects on the energy landscape of avidin” (Chemical Science, 2020).
